In US20100041697A1, “PNEUMONIA TREATMENT” (TaiGen Biotechnology Co., Ltd., priority 2008, published 2010):
Where a name gives a salt, the structure may show the parent alone.

Assays:
[1] = system: community-acquired pneumonia; experiment: Randomized, double-blind clinical trials in community-acquired pneumonia; format: in vivo, human; conditions: for cure rate / subjects cured: after 7 days; for cure rate: adult patients
Description: Randomized, double-blind clinical trials were conducted at 17 sites in Taiwan and South Africa to assess the effectiveness of Compound 1 in treating adult patients with community-acquired pneumonia.
The trials included a total of 265 subjects having community-acquired pneumonia. The average age of the subjects was 43.5 years old and the average body weight was 66.17 kg. About 50% of the subjects were male, and about 62% of the subjects were Black or African American, about 21% White, and about 15% Asian.
Among the 265 subjects, 86 were treated with 3 Compound 1-containing capsules (750 mg of the free base compound, i.e., (3S,5S)-7-[3-amino-5-methyl-piperidinyl]-1-cyclopropyl-1,4-dihydro-8-methoxy-4-oxo-3-quinolinecarboxylic acid) per day, 89 with 2 Compound 1-containing capsules (500 mg of the free base compound) per day, and 90 with 2 levofloxacin capsules (500 mg of levofloxacin) per day for 7 consecutive days. In each group, the drug capsules were orally taken by the subjects in the morning with a full glass of water (240 mL). Within 2 hours after taking the drugs, the subjects were not allowed to eat, but water intake (no more than 240 mL) was permitted. Overall, 10.6% of randomized subjects withdrew from the treatments.

[2] = system: Methicillin-Resistant Staphylococcus aureus; experiment: Broth microdilution against MRSA isolates (CAN-ICU Study); format: cell-based
Text: MRSA isolates (n=193) were obtained as part of the Canadian National Intensive Care Unit (CAN-ICU) Study. 19 medical centers from all regions of Canada with active ICUs participated in the CAN-ICU study included. They were requested to only obtain “clinically significant” specimens from patients with a presumed infectious disease. Surveillance swabs, eye, ear, nose and throat swabs were excluded. Anaerobic organisms and fungal organisms were also excluded.
From September 2005-June 2006 (inclusive), each center collected a maximum of 300 consecutive pathogens isolated from blood, urine, tissue/wound, and respiratory specimens (one pathogen per cultured site per patient) of ICU patients. These isolates were shipped to the reference laboratory (Health Sciences Centre, Winnipeg, Canada) on Amies charcoal swabs, subcultured in appropriate media, and stocked in skim milk at −80° C.
The isolates' methicillin resistance was confirmed using the disk diffusion method described by the Clinical and Laboratory Standards Institute. […] Their PFGE fingerprints thus obtained were analyzed with BioNumerics v3.5 (Applied Maths St. Marten-Latem, Belgium) using a position tolerance of 1.0 and an optimization of 1.0. Strain relatedness was determined as previously described (Tenover et al., 1995). […]

[3] = system: multidrug-resistant methicillin-resistant Staphylococcus aureus; experiment: Agar dilution MIC against multidrug-resistant MRSA (Taiwan isolates); format: cell-based
Description: Compound 1 was tested for its inhibitory effect against multidrug-resistant methicillin-resistant Staphylococcus aureus obtained by 10 medical centers in all regions of Taiwan. MICs were determined using the agar dilution methods recommended by the Clinical and Laboratory Standards Institute (CLSI-M100-S18).

[4] = Pharmacokinetic analysis of plasma (Cmax, AUC0-24h) at steady state; format: in vivo, human; conditions: for Free AUC0-24: corrected for plasma protein binding; for Cmax / AUC(0-t): human, po, steady state, plasma; for Cmax: in vivo
[5] = Plasma protein binding by ultrafiltration; format: in vitro ADME; conditions: human plasma
Description: Protein binding was also measured as follows: Ultrafiltrate (UF) samples were obtained by centrifuging the above-mentioned Compound 1-contaning heparinized human plasma in molecular weight cutoff ultrafiltration devices (30,000 Da) at ˜3000 rpm (30 min, ˜37° C.). The UF samples (0.025 mL) were mixed with an internal standard solution—0.050 mL of ˜800 ng/mL O^13CD3-Compound 1 (in which the OCH3 group was replaced with the O^13CD3 group), diluted by 20 folds, and analyzed by reverse-phase HPLC on a 3.5 micron C-18 column. Quantitation was obtained by the multiple reaction monitoring method through positive ion Turbo-Ion Spray ionization. Ultrafiltrate standards were used to quantify the unbound drug in plasma quality control samples and unknown specimens. Non-specific protein binding (NSB) was measured (NSB=0.0415) and used as a correction factor to determine the final % protein bindings. The nominal range of quantitation for the analyte was 50 to 10,000 ng/mL. 0.400 mL aliquot of human plasma was used in the assay. Sample concentrations were determined by back-calculation using a weighted linear (1/x^2) regression of a calibration curve generated from spiked UF standards. Over the linear range, the inter-batch % CV for Compound 1 was 4.9% to 11.8%.

Streptococcus pneumoniae = experiment: Broth microdilution MIC against Streptococcus pneumoniae (Taiwan isolates); format: cell-based; conditions: 0.008 to 8 μg/ml
Description: (§1) The Staphylococcus aureus and Streptococcus pneumoniae isolates were obtained by 10 medical centers in all regions of Taiwan. MICs were determined using the broth microdilution method.

[6] = system: Methicillin-Resistant Staphylococcus aureus; experiment: Broth microdilution MIC against methicillin-resistant Staphylococcus aureus (Taiwan isolates); format: cell-based; conditions: 0.008 to 8 μg/ml
Description: as §1

[7] = 500 mg per day orally, 89 treated (Compound 1), 90 treated (levofloxacin)

Compound `C[C@H]1COc2c(N3CCN(C)CC3)c(F)cc3c(=O)c(C(=O)O)cn1c23` [levofloxacin, reference compound] has a cure rate ([1]; 500 mg per day orally) of 80.0% and a subjects cured [1, 7] of 72 subjects.
For `COc1c(N2C[C@@H](C)C[C@H](N)C2)ccc2c(=O)c(C(=O)O)cn(C3CC3)c12` [Compound 1, malate salt hemihydrate of (3S,5S)-7-[3-amino-5-methyl-piperidinyl]-1-cyclopropyl-1,4-dihydro-8-methoxy-4-oxo-3-quinolinecarboxylic acid], the cure rate ([1]; 500 mg per day orally) was 75.3%, the subjects cured [1, 7] was 67 subjects and the cure rate ([1]; 750 mg per day orally) was 82.6%. The subjects cured ([1]; 750 mg per day orally, 86 treated) was 71 subjects, the “effectiveness in treating community-acquired pneumonia” value ([1]; oral capsules, 7 consecutive days) was “effective in treating community-acquired pneumonia” and the “activity against community-associated-MRSA versus healthcare-associated-MRSA strains” value [2] was “more active against community-associated-MRSA strains than healthcare-associated-MRSA strains”. For the same compound, the “inhibitory activity against the MRSA isolates” value ([2]; 193 MRSA isolates) was “effectively inhibited MRSA”, the “inhibitory effect against MRSA isolates that are Ciprofloxacin-resistant, Vancomycin-intermediate-resistant, and Daptomycin-nonsusceptible” value [3] was “effective in inhibiting” and the “Free AUC0-24” value ([4]; 500 mg q24 p.o.) was 32400 ng·h/mL. The “Free AUC0-24” value ([4]; 750 mg q24 p.o.) was 49100 ng·h/mL, the “Free AUC0-24” value ([4]; 1000 mg q24 p.o.) was 62900 ng·h/mL and the Cmax ([4]; 500 mg q24 p.o.) was 5560 ng/mL. It also gave a Cmax ([4]; 750 mg q24 p.o.) of 6820 ng/mL, a Cmax ([4]; 1000 mg q24 p.o.) of 8200 ng/mL and an AUC(0-t) ([4]; 500 mg q24 p.o.) of 38600 ng·h/mL. It also gave an AUC(0-t) ([4]; 750 mg q24 p.o.) of 58400 ng·h/mL, an AUC(0-t) ([4]; 1000 mg q24 p.o.) of 74800 ng·h/mL and a fraction unbound at 30 min ([5]; 500 mg per day, 500 mg q24 p.o.) of 0.84. The “Protein Binding” value ([5]; 750 mg q24 p.o.) was 16% and the “Protein Binding” value ([5]; 1000 mg q24 p.o.) was 16%.
For `COc1c(N2C[C@H](C)C[C@H](N)C2)ccc2c(=O)c(C(=O)O)cn(C3CC3)c12` [Compound 1′, malate salt hemihydrate of (3S,5R)-7-[3-amino-5-methyl-piperidinyl]-1-cyclopropyl-1,4-dihydro-8-methoxy-4-oxo-3-quinolinecarboxylic acid], the “inhibitory effect against Streptococcus pneumoniae” value (Streptococcus pneumoniae) was “effective in inhibiting” and the “inhibitory effect against methicillin-resistant Staphylococcus aureus” value [6] was “effective in inhibiting”.
